Results from ChEMBL document CHEMBL3727356, “Therapeutic compounds and compositions” (2014).

What was measured:
Pyruvate kinase PKLR [1] = biological target: T1, Pyruvate kinase PKLR (Homo sapiens, UniProt P30613); experiment: Activation of wild type PKR (unknown origin) by cell based assay
Pyruvate kinase PKLR [2] = biological target: T1, Pyruvate kinase PKLR; experiment: Activation of wild type PKR (unknown origin) incubated for 60 mins in presence of ADP, PEP and NADH by Spectraax microplate reader based assay
Pyruvate kinase PKLR [3] = biological target: Pyruvate kinase PKLR (Homo sapiens, UniProt P30613, R532W); experiment: Activation of PKR R532W mutant (unknown origin) incubated for 60 mins in presence of ADP, PEP and NADH by Spectraax microplate reader based assay
Pyruvate kinase PKLR [4] = biological target: Pyruvate kinase PKLR (Homo sapiens, UniProt P30613, R510Q); experiment: Activation of PKR R510Q mutant (unknown origin) incubated for 60 mins in presence of ADP, PEP and NADH by Spectraax microplate reader based assay
Sequence of Pyruvate kinase PKLR (Homo sapiens, UniProt P30613, R510Q) (P30613 whole entry R510Q): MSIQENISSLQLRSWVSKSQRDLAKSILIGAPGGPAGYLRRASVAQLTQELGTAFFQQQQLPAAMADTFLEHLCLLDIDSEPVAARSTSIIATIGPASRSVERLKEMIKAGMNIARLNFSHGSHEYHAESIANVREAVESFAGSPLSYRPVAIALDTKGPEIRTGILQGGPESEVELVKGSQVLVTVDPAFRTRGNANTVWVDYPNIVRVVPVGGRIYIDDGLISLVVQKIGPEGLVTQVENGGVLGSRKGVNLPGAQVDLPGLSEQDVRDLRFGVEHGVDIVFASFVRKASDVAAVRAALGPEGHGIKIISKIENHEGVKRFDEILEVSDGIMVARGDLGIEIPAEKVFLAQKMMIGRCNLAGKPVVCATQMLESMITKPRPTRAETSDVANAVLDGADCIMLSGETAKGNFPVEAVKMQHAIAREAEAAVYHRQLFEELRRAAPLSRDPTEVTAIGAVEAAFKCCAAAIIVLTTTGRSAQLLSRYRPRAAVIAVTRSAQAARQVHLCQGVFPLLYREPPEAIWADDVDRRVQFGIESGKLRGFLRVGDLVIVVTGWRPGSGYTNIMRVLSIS

Sequence of Pyruvate kinase PKLR (Homo sapiens, UniProt P30613, R532W) (P30613 whole entry R532W): as the sequence (P30613 whole entry R510Q) above, with Q510R, R532W counted along it
T1 sequence (P30613 whole entry): as the sequence (P30613 whole entry R510Q) above, with Q510R counted along it

Row | AC50 (Pyruvate kinase PKLR [1]) [nM] | AC50 (Pyruvate kinase PKLR [2]) [nM] | AC50 (Pyruvate kinase PKLR [3]) [nM] | AC50 (Pyruvate kinase PKLR [4]) [nM] | SMILES
1 | < 100 | < 100 | < 100 | < 100 | O=C(c1ccc(NS(=O)(=O)c2cccc3cccnc23)cc1)N1CCC(O)(c2ccccc2C(F)F)CC1
2 | < 100 | < 100 | < 100 | < 100 | O=C(c1ccc(NS(=O)(=O)c2cccc3cccnc23)cc1)N1CCC(O)(c2cccc(F)c2F)CC1
3 | < 100 | < 100 | < 100 | < 100 | Cc1ccccc1CC1(O)CCN(C(=O)c2ccc(NS(=O)(=O)c3cccc4cccnc34)cc2)CC1
4 | ≤ 1000 | < 100 | < 100 | ≤ 1000 | O=C(c1ccc(NS(=O)(=O)c2ccc3nsnc3c2)cc1)N1CCC(O)(Cc2ccccc2)CC1
5 | < 100 | < 100 | < 100 | < 100 | O=C(c1ccc(NS(=O)(=O)c2cccc3cccnc23)cc1)N1CCC(O)(c2ccccc2C(F)(F)F)CC1
6 | < 100 | < 100 | < 100 | < 100 | O=C(c1ccc(NS(=O)(=O)c2cccc3cccnc23)cc1)N1CCC(O)(Cc2c(F)cccc2F)CC1
7 | < 100 | < 100 | < 100 | < 100 | CC(C)(C)CC1(O)CCN(C(=O)c2ccc(NS(=O)(=O)c3cccc4cccnc34)cc2)CC1
8 | < 100 | < 100 | < 100 | < 100 | O=C(c1ccc(NS(=O)(=O)c2cccc3cccnc23)cc1)N1CCC(O)(CC2CCC2)CC1
9 | < 100 | < 100 | < 100 | < 100 | O=C(c1ccc(NS(=O)(=O)c2cccc3cccnc23)cc1)N1CCC(O)(Cc2cccc(F)c2)CC1
10 | < 100 | < 100 | < 100 | < 100 | O=C(c1ccc(NS(=O)(=O)c2cccc3cccnc23)cc1)N1CCC(O)(c2ccc(F)cc2Cl)CC1
11 | < 100 | < 100 | < 100 | < 100 | O=C(c1ccc(NS(=O)(=O)c2cccc3cccnc23)cc1F)N1CCC(O)(Cc2ccccc2)CC1
12 | < 100 | < 100 | < 100 | < 100 | CC(C)CC1(O)CCN(C(=O)c2ccc(NS(=O)(=O)c3cccc4cccnc34)cc2)CC1
13 | < 100 | < 100 | < 100 | < 100 | Cc1ccccc1C1(O)CCN(C(=O)c2ccc(NS(=O)(=O)c3cccc4cccnc34)cc2)CC1
14 | < 100 | < 100 | < 100 | < 100 | CC1(CC2(O)CCN(C(=O)c3ccc(NS(=O)(=O)c4cccc5cccnc45)cc3)CC2)CC1
15 | < 100 | < 100 | < 100 | < 100 | O=C(c1ccc(NS(=O)(=O)c2cccc3scnc23)cc1)N1CCC(O)(Cc2ccccc2C(F)(F)F)CC1
16 | < 100 | < 100 | < 100 | < 100 | O=C(c1ccc(NS(=O)(=O)c2cccc3cccnc23)cc1)N1CCC(O)(c2cccc(F)c2Cl)CC1
17 | < 100 | < 100 | < 100 | < 100 | O=C(c1ccc(NS(=O)(=O)c2cccc3nccnc23)cc1)N1CCC(O)(Cc2ccccc2C(F)(F)F)CC1
18 | < 100 | < 100 | < 100 | < 100 | O=C(c1ccc(NS(=O)(=O)c2cccc3cc(F)cnc23)cc1)N1CCC(O)(Cc2ccccc2)CC1
19 | < 100 | < 100 | < 100 | < 100 | O=C(c1ccc(NS(=O)(=O)c2cccc3cccnc23)cc1)N1CCC(O)(Cc2ccccc2)CC1
20 | < 100 | < 100 | < 100 | < 100 | O=C(c1ccc(NS(=O)(=O)c2cccc3cccnc23)cc1)N1CCC(O)(CC2CC2)CC1
21 | < 100 | < 100 | < 100 | < 100 | Cc1cc(C(=O)N2CCC(O)(Cc3ccccc3)CC2)ccc1NS(=O)(=O)c1cccc2cccnc12
22 | < 100 | < 100 | < 100 | < 100 | O=C(c1ccc(NS(=O)(=O)c2cccc3cccnc23)cc1)N1CCC(O)(Cc2ccccc2F)CC1
23 | < 100 | < 100 | < 100 | < 100 | Cc1nc(F)ccc1C1(O)CCN(C(=O)c2ccc(NS(=O)(=O)c3cccc4cccnc34)cc2)CC1
24 | < 100 | < 100 | < 100 | < 100 | O=C(c1ccc(NS(=O)(=O)c2cccc3cccnc23)cc1)N1CCC(O)(c2ccccc2Cl)CC1
25 | < 100 | < 100 | < 100 | < 100 | CCc1ccccc1C1(O)CCN(C(=O)c2ccc(NS(=O)(=O)c3cccc4cccnc34)cc2)CC1
26 | < 100 | < 100 | < 100 | < 100 | CCCCC1(O)CCN(C(=O)c2ccc(NS(=O)(=O)c3cccc4cccnc34)cc2)CC1
27 | < 100 | < 100 | < 100 | < 100 | Cc1cc(F)ccc1C1(O)CCN(C(=O)c2ccc(NS(=O)(=O)c3cccc4cccnc34)cc2)CC1
28 | < 100 | < 100 | < 100 | < 100 | COc1ccccc1CC1(O)CCN(C(=O)c2ccc(NS(=O)(=O)c3cccc4cccnc34)cc2)CC1
29 | < 100 | < 100 | < 100 | < 100 | O=C(c1ccc(NS(=O)(=O)c2cccc3cccnc23)cc1)N1CCC(O)(Cc2ccccc2C(F)(F)F)CC1

Second part, the compound before the results:

Row | SMILES | AC50 (Pyruvate kinase PKLR [1]) [nM] | AC50 (Pyruvate kinase PKLR [2]) [nM] | AC50 (Pyruvate kinase PKLR [3]) [nM] | AC50 (Pyruvate kinase PKLR [4]) [nM]
30 | O=C(c1ccc(NS(=O)(=O)c2cccc3cccnc23)cc1)N1CCC(O)(c2ccc(F)c(Br)n2)CC1 | < 100 | < 100 | < 100 | < 100
31 | O=C(c1ccc(NS(=O)(=O)c2cccc3cccnc23)cc1OC(F)(F)F)N1CCC(O)(c2ccccc2Cl)CC1 | < 100 | < 100 | < 100 | < 100
32 | Cc1cc(C(=O)N2CCC(O)(c3ccccc3Cl)CC2)ccc1NS(=O)(=O)c1cccc2nccnc12 | < 100 | < 100 | < 100 | < 100
33 | CC(C)CC1(C=O)CCN(C(=O)c2ccc(NS(=O)(=O)c3cccc4cccnc34)cc2)CC1 | < 100 | < 100 | < 100 | < 100
34 | CC(C)CC1(O)CCN(C(=O)c2ccc(NS(=O)(=O)c3cccc4c(O)ncnc34)cc2)CC1 | < 100 | < 100 | < 100 | < 100
35 | CC(C)CC1(CO)CCN(C(=O)c2ccc(NS(=O)(=O)c3cccc4cccnc34)cc2)CC1 | < 100 | < 100 | < 100 | < 100
36 | O=C(c1ccc(NS(=O)(=O)c2cccc3scnc23)cc1)N1CCC(O)(CCCC(F)F)CC1 | < 100 | < 100 | < 100 | < 100
37 | Cc1cc(C(=O)N2CCC(O)(c3cccc(Cl)c3)CC2)ccc1NS(=O)(=O)c1cccc2cccnc12 | < 100 | < 100 | < 100 | ≤ 1000
38 | O=C(c1ccc(NS(=O)(=O)c2cccc3c2OCCC3)cc1)N1CCC(O)(c2ccccc2Cl)CC1 | < 100 | < 100 | < 100 | < 100
39 | CC(C)CC1(O)CCN(C(=O)c2ccc(NS(=O)(=O)c3cc(F)cc4sc(N)nc34)cc2)CC1 | < 100 | < 100 | < 100 | < 100
40 | CC(C)(C)CC1(O)CCN(C(=O)c2ccc(NS(=O)(=O)c3cccc4nccnc34)cc2)CC1 | < 100 | < 100 | < 100 | < 100
41 | Nc1nc2c(S(=O)(=O)Nc3ccc(C(=O)N4CCC(O)(/C=C/CC(F)(F)F)CC4)cc3)cccc2s1 | < 100 | < 100 |  | < 100
42 | CC(C)CC1(O)CCN(C(=O)c2ccc(NS(=O)(=O)c3cccc4nccnc34)cc2)CC1 | < 100 | < 100 | < 100 | < 100
43 | CC(C)(C)CC1(O)CCN(C(=O)c2ccc(NS(=O)(=O)c3ccc(F)c4cccnc34)cc2)CC1 | < 100 | < 100 | < 100 | < 100
44 | O=C(c1ccc(NS(=O)(=O)c2cccc3cccnc23)cc1OC(F)F)N1CCC(O)(c2ccccc2Cl)CC1 | < 100 | < 100 | < 100 | < 100
45 | O=C(c1ccc(NS(=O)(=O)c2ccc(F)c3nccnc23)cc1)N1CCC(O)(c2cccc(F)c2F)CC1 | ≥ 1010 | < 100 | < 100 | ≤ 1000
46 | Cc1cc(C(=O)N2CCC(O)(c3ccccc3Cl)CC2)ccc1NS(=O)(=O)c1cccc2cccnc12 | < 100 | < 100 | < 100 | < 100
47 | CNc1nc2c(S(=O)(=O)Nc3ccc(C(=O)N4CCC(O)(CC(C)C)CC4)cc3)cc(Cl)cc2s1 | < 100 | < 100 | < 100 | < 100
48 | CC(C)(C)CC1(O)CCN(C(=O)c2ccc(NS(=O)(=O)c3cccc4scnc34)cc2)CC1 | < 100 | < 100 | < 100 | < 100
49 | O=C(c1ccc(NS(=O)(=O)c2cccc3cccnc23)c(F)c1)N1CCC(O)(c2ccccc2Cl)CC1 | < 100 | < 100 | < 100 | < 100
50 | Nc1nc2c(S(=O)(=O)Nc3ccc(C(=O)N4CCC(O)(c5ccccc5Cl)CC4)cc3)cc(F)cc2s1 | < 100 | < 100 | < 100 | < 100
51 | CC(C)CC1(O)CCN(C(=O)c2ccc(NS(=O)(=O)c3cccc4scnc34)cc2)CC1 | < 100 | < 100 | < 100 | < 100
